Measured values published in patent US20250311727A1, “SUBSTITUTED 2-AMINOAZINES AND SALTS THEREOF, AND USE THEREOF AS HERBICIDAL ACTIVE SUBSTANCES” (BAYER AKTIENGESELLSCHAFT, priority 2022, published 2025).

Tests used:
Format in all cases: in vivo
Amaranthus retroflexus [1] = assay: Post-emergence herbicidal efficacy at 320 g/ha, AMARE; details: rated visually after about 3 weeks vs untreated controls, 100% = plants have died
Text: (§1) Unwanted plants/weeds: • ABUTH: Abutilon theophrasti • ALOMY: Alopecurus myosuroides • AMARE: Amaranthus retroflexus • DIGSA: Digitaria sanguinalis • ECHCG: Echinochloa crus-galli • KCHSC: Kochia scoparia • LOLRI: Lolium rigidum • MATIN: Matricaria inodora • POAAN: Poa annua • POLCO: Polygonum convolvulus • SETVI: Setaria viridis • STEME: Stellaria media • VERPE: Veronica persica • VIOTR: Viola tricolor A. Post-Emergence Herbicidal Efficacy at 320 g/ha
(§2) Seeds of mono- and dicotyledonous weed plants were placed in plastic pots in sandy loam soil (doubly sown with in each case one species of mono- or dicotyledonous weed plants per pot), covered with soil and cultivated in a greenhouse under controlled growth conditions. 2 to 3 weeks after sowing, the test plants were treated at the one-leaf stage. The compounds of the invention, formulated in the form of wettable powders (WP) or as emulsion concentrates (EC), were applied to the green parts of the plants as aqueous suspension or emulsion with addition of 0.5% additive at a water application rate equivalent to 600 litres per hectare. After the test plants had been kept in the greenhouse under optimum growth conditions for about 3 weeks, the activity of the preparations was rated visually in comparison to untreated controls.
(§3) For example, 100% activity=the plants have died, 0% activity=like control plants.
(§4) Tables A1 to A10 below show the effects of selected compounds of the general formula (I) according to Table 1 on various harmful plants and at an application rate corresponding to 320 g/ha, which were obtained by the trial procedure specified above.

Veronica persica = assay: Post-emergence herbicidal efficacy at 320 g/ha, VERPE; details: rated visually after about 3 weeks vs untreated controls, 100% = plants have died
Text: as §1, §2, §3, §4

Amaranthus retroflexus [2] = assay: Pre-emergence herbicide efficacy at 320 g/ha, AMARE; details: scored visually after about 3 weeks vs untreated controls, 100% = plants have died
Text: as §1
(§5) Seeds of mono- and dicotyledonous weed plants were placed in plastic pots in sandy loam soil (doubly sown with one species each of mono- or dicotyledonous weed plants per pot) and covered with soil. The compounds of the invention, formulated in the form of wettable powders (WP) or as emulsion concentrates (EC), were then applied to the surface of the covering soil as aqueous suspension or emulsion with addition of 0.5% additive at a water application rate of 600 litres per hectare (converted). After the treatment, the pots were placed in a greenhouse and kept under good growth conditions for the test plants. After about 3 weeks, the efficacy of the preparations was scored visually in comparison with untreated controls as percentages.
as §3
(§6) Tables C1 to C12 below show the effects of selected compounds of the general formula (I) according to Table 1 on various harmful plants and at an application rate corresponding to 320 g/ha, which were obtained by the trial procedure specified above.

Stellaria media = assay: Post-emergence herbicidal efficacy at 320 g/ha, STEME; details: rated visually after about 3 weeks vs untreated controls, 100% = plants have died
Text: as §1, §2, §3, §4

Kochia scoparia = assay: Post-emergence herbicidal efficacy at 320 g/ha, KCHSC; details: rated visually after about 3 weeks vs untreated controls, 100% = plants have died
Text: as §1, §2, §3, §4

Setaria viridis = assay: Pre-emergence herbicide efficacy at 320 g/ha, SETVI; details: scored visually after about 3 weeks vs untreated controls, 100% = plants have died
Text: as §1, §5, §3, §6

| Structure (SMILES) | Post-emergence efficacy at 320 g/ha against AMARE in % (Amaranthus retroflexus [1]) [%] | Post-emergence efficacy at 320 g/ha against VERPE in % (Veronica persica) [%] | Pre-emergence efficacy at 320 g/ha against AMARE in % (Amaranthus retroflexus [2]) [%] | Post-emergence efficacy at 320 g/ha against STEME in % (Stellaria media) [%] | Post-emergence efficacy at 320 g/ha against KCHSC in % (Kochia scoparia) [%] | Pre-emergence efficacy at 320 g/ha against SETVI in % (Setaria viridis) [%] |
| --- | --- | --- | --- | --- | --- | --- |
| Fc1cnc(Nc2ccccc2CCCC(F)(F)F)nc1 [Example 1-3] | 90 | 90 | – | – | – | – |
| FC(F)(F)CCCSc1ccccc1Nc1ncc(Cl)cn1 [Example 1-4] | 90 | – | – | – | – | – |
| O=S(=O)(CCCC(F)(F)F)Oc1c(F)cccc1Nc1ncc(Cl)cn1 [Example 1-14] | 90 | 90 | 90 | – | – | – |
| O=S(=O)(CCCC(F)(F)F)Oc1c(F)cccc1Nc1ncc(F)cn1 [Example 1-15] | 90 | 90 | – | – | – | – |
| O=S(=O)(CCC(F)(F)F)Oc1c(F)cccc1Nc1ncc(Cl)cn1 [Example 1-16] | – | 90 | 90 | – | – | – |
| O=S(=O)(CCC(F)(F)F)Oc1c(F)cccc1Nc1ncc(F)cn1 [Example 1-17] | 90 | – | – | – | – | – |
| Clc1ccc(-c2ccccc2Nc2ncc(Cl)cn2)cc1 [Example 1-25] | – | 90 | – | 100 | – | – |
| Fc1ccc(-c2ccccc2Nc2ncc(Cl)cn2)cc1F [Example 1-28] | 100 | 100 | – | – | – | – |
| N#Cc1cccc(Nc2ncc(C(F)(F)F)cn2)c1-n1cc(C(F)(F)F)cn1 [Example 1-41] | – | 90 | – | – | – | – |
| N#Cc1cccc(Nc2ccc(F)cn2)c1-n1cc(C(F)(F)F)cn1 [Example 1-52] | 90 | 90 | 90 | – | – | – |
| N#Cc1cccc(Nc2ncc(Cl)cc2F)c1-n1cc(C(F)(F)F)cn1 [Example 1-54] | 100 | 100 | – | – | 90 | – |
| N#Cc1cc(Cl)cnc1Nc1cccc(C#N)c1-n1cc(C(F)(F)F)cn1 [Example 1-55] | 100 | 100 | 100 | – | 90 | – |
| Fc1cccc(Nc2ccc(Cl)cn2)c1-c1cc(C(F)F)no1 [Example 1-56] | 90 | 90 | – | – | – | – |
| Fc1cc(Cl)cnc1Nc1cccc(F)c1-c1cc(C(F)F)no1 [Example 1-57] | – | – | – | – | 90 | – |
| N#Cc1ccc(Nc2cccc(C#N)c2-n2cc(C(F)(F)F)cn2)nc1 [Example 1-58] | 90 | 90 | – | – | – | – |
| N#Cc1cccc(Nc2ccc(Cl)cn2)c1-n1cc(C(F)(F)F)cn1 [Example 1-59] | 90 | 100 | 90 | – | 90 | – |
| FC(F)(F)CCCc1ccccc1Nc1ccc(Cl)cn1 [Example 1-70] | 100 | 90 | – | – | – | – |
| N#Cc1cccc(Nc2ncc(Cl)cn2)c1-n1cc(Br)cn1 [Example 1-73] | 100 | 90 | – | – | 90 | – |
| N#Cc1cc(Cl)cnc1Nc1ccccc1CCCCC(F)(F)F [Example 1-76] | 90 | 90 | – | – | – | – |
| FC(F)(F)c1cnn(-c2ccccc2Nc2ncc(Cl)cn2)c1 [Example 1-78] | – | 90 | 100 | 90 | – | 90 |
| Cc1cc(C)c(-c2cc(C(F)F)no2)c(Nc2ccc(Cl)cn2)n1 [Example 2-7] | – | 90 | – | – | – | – |
